One test deals with T1, CK1α (Homo sapiens, UniProt P48729+Q96SW2).
T1 construct: CSNK1A1-HiBit KI HEK293(LgBit) Cells; host or cells: HEK293(LgBit) knock-in cells
Nature of the test: HiBiT degradation assay, CK1α, Procedure A. The format is cell-based. The conditions noted are these: six hours. In a few lines: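 Cells in DMEM+10% FBS at 1×10^6 cells/ml were added to pre-spotted compound (10-point dose response, 10 μM to 0.005 μM, 0.1% DMSO) and incubated 6 h at 37° C. Nano-Glo HiBiT lytic reagent was added and luminescence read. DC50 and Ymin came from 4-parameter curve fits.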
For orientation: The HiBiT peptide binds its large partner to form an active luciferase.

The target in another test is GSPT1 (Homo sapiens, UniProt P15170+Q96SW2). Put plainly: HiBiT degradation assay, GSPT1, Procedure B (Molt 4_hGSPT1_HiBIT cells). The conditions noted are these: six hours. On the set-up: Molt 4_hGSPT1_HiBIT N-terminus tagged cells were generated using CRISPR technology; endogenous in cells; host or cells: Molt 4 cells, CRISPR-edited. The test is classed as cell-based. In a few lines: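 CRISPR N-terminal HiBiT-tagged Molt 4 cells at 1×10^6 cells/ml were treated 6 h at 37° C with compounds (10-point, 10 μM to 0.005 μM, 0.1% DMSO). Remaining HiBiT-GSPT1 was read by lytic luminescence; DC50 and Ymin (% remaining) from a 4-parameter fit.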
GSPT1, sequence (P15170 whole entry): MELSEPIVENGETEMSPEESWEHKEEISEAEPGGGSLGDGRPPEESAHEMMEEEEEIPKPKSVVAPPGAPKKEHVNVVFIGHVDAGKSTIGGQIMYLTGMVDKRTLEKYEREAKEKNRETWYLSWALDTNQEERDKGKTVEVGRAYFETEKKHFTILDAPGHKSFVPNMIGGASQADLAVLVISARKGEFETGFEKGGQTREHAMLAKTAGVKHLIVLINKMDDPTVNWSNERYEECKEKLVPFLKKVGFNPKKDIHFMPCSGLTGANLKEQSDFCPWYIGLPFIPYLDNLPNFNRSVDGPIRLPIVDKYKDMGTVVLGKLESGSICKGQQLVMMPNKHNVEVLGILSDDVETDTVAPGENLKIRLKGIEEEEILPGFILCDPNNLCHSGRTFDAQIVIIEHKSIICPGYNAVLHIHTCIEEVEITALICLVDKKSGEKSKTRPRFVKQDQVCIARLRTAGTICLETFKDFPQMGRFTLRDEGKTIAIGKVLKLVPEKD
GSPT1, sequence (Q96SW2 whole entry): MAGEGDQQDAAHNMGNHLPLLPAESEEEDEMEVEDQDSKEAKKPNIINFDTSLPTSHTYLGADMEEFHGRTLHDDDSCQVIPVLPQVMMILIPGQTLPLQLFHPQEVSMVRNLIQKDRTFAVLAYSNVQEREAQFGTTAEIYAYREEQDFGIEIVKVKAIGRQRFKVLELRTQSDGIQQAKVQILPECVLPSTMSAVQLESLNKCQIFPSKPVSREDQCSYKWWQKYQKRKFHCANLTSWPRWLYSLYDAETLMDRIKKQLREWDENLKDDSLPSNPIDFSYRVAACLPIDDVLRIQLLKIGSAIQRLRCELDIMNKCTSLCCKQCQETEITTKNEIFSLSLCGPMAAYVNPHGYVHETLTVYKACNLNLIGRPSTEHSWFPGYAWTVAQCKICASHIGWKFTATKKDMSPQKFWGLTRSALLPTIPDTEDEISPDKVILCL
GSPT1, sequence (Q16531 whole entry partner): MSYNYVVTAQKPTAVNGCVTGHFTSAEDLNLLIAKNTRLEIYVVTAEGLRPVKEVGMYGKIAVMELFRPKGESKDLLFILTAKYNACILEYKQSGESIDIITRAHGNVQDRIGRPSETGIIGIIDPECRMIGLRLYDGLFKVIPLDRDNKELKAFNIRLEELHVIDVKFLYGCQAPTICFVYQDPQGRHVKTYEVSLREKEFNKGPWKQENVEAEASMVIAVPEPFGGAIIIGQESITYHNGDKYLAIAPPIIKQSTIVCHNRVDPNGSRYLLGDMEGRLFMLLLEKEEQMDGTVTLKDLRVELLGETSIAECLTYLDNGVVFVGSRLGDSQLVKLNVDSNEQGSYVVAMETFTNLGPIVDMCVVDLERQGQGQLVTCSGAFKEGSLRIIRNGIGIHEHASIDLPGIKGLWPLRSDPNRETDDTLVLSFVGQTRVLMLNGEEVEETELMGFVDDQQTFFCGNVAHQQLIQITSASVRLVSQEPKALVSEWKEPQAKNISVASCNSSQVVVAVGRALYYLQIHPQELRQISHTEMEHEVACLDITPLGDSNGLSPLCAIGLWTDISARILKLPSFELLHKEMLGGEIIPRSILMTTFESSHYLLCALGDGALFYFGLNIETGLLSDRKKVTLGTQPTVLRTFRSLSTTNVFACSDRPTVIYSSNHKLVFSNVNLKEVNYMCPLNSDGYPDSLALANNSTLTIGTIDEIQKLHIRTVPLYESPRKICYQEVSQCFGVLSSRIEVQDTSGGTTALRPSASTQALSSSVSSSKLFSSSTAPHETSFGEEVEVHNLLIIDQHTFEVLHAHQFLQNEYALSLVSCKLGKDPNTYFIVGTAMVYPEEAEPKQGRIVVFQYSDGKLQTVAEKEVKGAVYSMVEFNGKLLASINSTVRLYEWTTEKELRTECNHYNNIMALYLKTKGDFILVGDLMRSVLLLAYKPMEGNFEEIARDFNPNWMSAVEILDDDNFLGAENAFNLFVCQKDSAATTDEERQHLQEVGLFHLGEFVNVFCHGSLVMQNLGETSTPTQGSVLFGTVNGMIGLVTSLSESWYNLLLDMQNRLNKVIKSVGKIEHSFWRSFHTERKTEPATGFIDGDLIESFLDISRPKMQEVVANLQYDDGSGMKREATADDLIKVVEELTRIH

T1 sequence (P48729 whole entry): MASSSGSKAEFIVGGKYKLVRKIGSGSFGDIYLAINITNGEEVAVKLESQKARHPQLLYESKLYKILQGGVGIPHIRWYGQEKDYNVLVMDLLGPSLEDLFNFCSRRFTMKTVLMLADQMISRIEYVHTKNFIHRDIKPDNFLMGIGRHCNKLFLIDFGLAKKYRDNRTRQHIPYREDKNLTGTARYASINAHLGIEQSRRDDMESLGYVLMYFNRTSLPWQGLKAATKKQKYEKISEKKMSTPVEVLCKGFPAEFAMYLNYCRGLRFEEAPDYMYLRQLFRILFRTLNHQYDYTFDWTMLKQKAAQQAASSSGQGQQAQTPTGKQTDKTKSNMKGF
T1 sequence (Q96SW2 whole entry): as the sequence (Q96SW2 whole entry) above
T1 sequence (Q16531 whole entry partner): as the sequence (Q16531 whole entry partner) above

The term DC50 denotes the concentration at which degradation of the target reaches its halfway point. With `CCCCc1ccc(-c2nc(-c3ccc4c(c3)CN(C3CCC(=O)NC3=O)C4=O)cn2C)s1` (stereo not shown) [Example 687], at CK1α, the “CK1α Ymin” value is “D (D = >10- 25% remaining)” and the 50% degradation concentration (DC50) was less than 25 nM. For the same compound, on GSPT1, the DC50 is less than 25 nM and the “GSPT1 Ymin” value was “F (F = >75-100% remaining)”.

Consider `COc1ccc(Cl)c(-c2nc(-c3ccc4c(c3)CN(C3CCC(=O)NC3=O)C4=O)cn2C)c1` (stereo not shown) [Example 688], for which, on CK1α, the “CK1α Ymin” value is listed as “C (C = 0-10% remaining)” and the DC50 was less than 25 nM. On GSPT1, the DC50 was less than 25 nM and the “GSPT1 Ymin” value was “F (F = >75-100% remaining)”.

In the case of `Cn1cc(-c2ccc3c(c2)CN(C2CCC(=O)NC2=O)C3=O)nc1-c1cccc2c1CCC2` (stereo not shown) [Example 689], at CK1α, the “CK1α Ymin” value is recorded as “C (C = 0-10% remaining)” and the DC50 is less than 25 nM. Also, at GSPT1, the DC50 was no less than 25 nM and the “GSPT1 Ymin” value is listed as “F (F = >75-100% remaining)”.

Regarding `Cn1ncc(-c2ccc3c(c2)CN(C2CCC(=O)NC2=O)C3=O)c1C1=CCNCC1` (stereo not shown) [Example 690], on CK1α, the “CK1α Ymin” value is listed as “E (E = >25-75% remaining)” and the 50% degradation concentration (DC50) was no less than 25 nM. In addition, at GSPT1, the DC50 is no less than 25 nM and the “GSPT1 Ymin” value is on record as “F (F = >75-100% remaining)”.

Regarding `Cn1ncc(-c2ccc3c(c2)CN(C2CCC(=O)NC2=O)C3=O)c1C1=CCCC1` (stereo not shown) [Example 691], on CK1α, the “CK1α Ymin” value is given as “E (E = >25-75% remaining)” and the DC50 was less than 25 nM. Besides, on GSPT1, the 50% degradation concentration (DC50) is no less than 25 nM and the “GSPT1 Ymin” value was “F (F = >75-100% remaining)”.

For `Cn1ncc(-c2ccc3c(c2)CN(C2CCC(=O)NC2=O)C3=O)c1C1=CCOCC1` (stereo not shown) [Example 693], at CK1α, the “CK1α Ymin” value is recorded as “E (E = >25-75% remaining)” and the DC50 is less than 25 nM. Besides, on GSPT1, the DC50 is no less than 25 nM and the “GSPT1 Ymin” value is given as “F (F = >75-100% remaining)”.

For the compound `Cn1ncc(-c2ccc3c(c2)CN(C2CCC(=O)NC2=O)C3=O)c1C1CCOCC1` (stereo not shown) [Example 694], on CK1α, the “CK1α Ymin” value is “E (E = >25-75% remaining)” and the DC50 is no less than 25 nM. On GSPT1, the DC50 was no less than 25 nM and the “GSPT1 Ymin” value was “F (F = >75-100% remaining)”.

For `Cn1ncc(-c2ccc3c(c2)CN(C2CCC(=O)NC2=O)C3=O)c1C1=COCCC1` (stereo not shown) [Example 695], at CK1α, the “CK1α Ymin” value is “E (E = >25-75% remaining)” and the DC50 is less than 25 nM. In addition, on GSPT1, the DC50 was less than 25 nM and the “GSPT1 Ymin” value is given as “F (F = >75-100% remaining)”.

For `Cn1ncc(-c2ccc3c(c2)CN(C2CCC(=O)NC2=O)C3=O)c1C1=CCC(c2ccccc2)CC1` (stereo not shown) [Example 696], at CK1α, the “CK1α Ymin” value is recorded as “E (E = >25-75% remaining)” and the DC50 was less than 25 nM. At GSPT1, the DC50 was no less than 25 nM and the “GSPT1 Ymin” value is on record as “F (F = >75-100% remaining)”.

Consider `Cn1ncc(-c2ccc3c(c2)CN(C2CCC(=O)NC2=O)C3=O)c1C1=CCCCCC1` (stereo not shown) [Example 697], for which, at CK1α, the “CK1α Ymin” value is “D (D = >10- 25% remaining)” and the DC50 is less than 25 nM. At GSPT1, the DC50 was no less than 25 nM and the “GSPT1 Ymin” value is given as “E (E = >25-75% remaining)”.

Take `Cn1ncc(-c2ccc3c(c2)CN(C2CCC(=O)NC2=O)C3=O)c1C1=CCC(F)(F)CC1` (stereo not shown) [Example 698]: on CK1α, the “CK1α Ymin” value is recorded as “F (F = >75-100% remaining)” and the DC50 is less than 25 nM. Moreover, at GSPT1, the DC50 was no less than 25 nM and the “GSPT1 Ymin” value is recorded as “F (F = >75-100% remaining)”.

With `Cn1ncc(-c2ccc3c(c2)CN(C2CCC(=O)NC2=O)C3=O)c1C1CCC(F)(F)CC1` (stereo not shown) [Example 699], on CK1α, the “CK1α Ymin” value was “F (F = >75-100% remaining)” and the DC50 was no less than 25 nM. Further, at GSPT1, the DC50 is no less than 25 nM and the “GSPT1 Ymin” value is recorded as “F (F = >75-100% remaining)”.

Regarding `Cn1ncc(-c2ccc3c(c2)CN(C2CCC(=O)NC2=O)C3=O)c1C1=Cc2ccccc2C1` (stereo not shown) [Example 700], on CK1α, the “CK1α Ymin” value is “E (E = >25-75% remaining)” and the DC50 is less than 25 nM. Moreover, on GSPT1, the DC50 is less than 25 nM and the “GSPT1 Ymin” value is listed as “F (F = >75-100% remaining)”.

`Cn1ncc(-c2ccc3c(c2)CN(C2CCC(=O)NC2=O)C3=O)c1C1=Cc2ccccc2CC1` (stereo not shown) [Example 701]: on CK1α, the “CK1α Ymin” value is recorded as “E (E = >25-75% remaining)” and the DC50 is no less than 25 nM. In addition, at GSPT1, the DC50 is no less than 25 nM and the “GSPT1 Ymin” value was “F (F = >75-100% remaining)”.

Turning to `Cn1ncc(-c2ccc3c(c2)CN(C2CCC(=O)NC2=O)C3=O)c1C1=CCN(CC(F)(F)F)CC1` (stereo not shown) [Example 702], on CK1α, the “CK1α Ymin” value is given as “E (E = >25-75% remaining)” and the DC50 was no less than 25 nM. Also, at GSPT1, the DC50 was no less than 25 nM and the “GSPT1 Ymin” value is listed as “F (F = >75-100% remaining)”.

In the case of `Cn1nc(-c2ccc3c(c2)CN(C2CCC(=O)NC2=O)C3=O)nc1N1[C@@H]2CCC[C@H]1CC2` (stereo partly drawn) [Example 706, 3-(5-(5-((1R,5S)-8-azabicyclo[3.2.1]octan-8-yl)-1-methyl-1H-1,2,4-triazol-3-yl)-1-oxoisoindolin-2-yl)piperidine-2,6-dione], at CK1α, the “CK1α Ymin” value was “D (D = >10- 25% remaining)” and the half-maximal degradation concentration (DC50) is less than 25 nM. Besides, on GSPT1, the DC50 was no less than 25 nM and the “GSPT1 Ymin” value is “F (F = >75-100% remaining)”.

With `Cn1nc(-c2ccc3c(c2)CN(C2CCC(=O)NC2=O)C3=O)nc1N1CCC(C(F)(F)F)CC1` (stereo not shown) [Example 707, 3-(5-(1-methyl-5-(4-(trifluoromethyl)piperidin-1-yl)-1H-1,2,4-triazol-3-yl)-1-oxoisoindolin-2-yl)piperidine-2,6-dione], on CK1α, the “CK1α Ymin” value was “D (D = >10- 25% remaining)” and the DC50 was less than 25 nM. Further, at GSPT1, the DC50 is no less than 25 nM and the “GSPT1 Ymin” value is recorded as “F (F = >75-100% remaining)”.

As to `C[C@H]1CCCCN1c1nc(-c2ccc3c(c2)CN(C2CCC(=O)NC2=O)C3=O)nn1C` (stereo partly drawn) [Example 708, 3-(5-(1-methyl-5-((S)-2-methylpiperidin-1-yl)-1H-1,2,4-triazol-3-yl)-1-oxoisoindolin-2-yl)piperidine-2,6-dione], at CK1α, the “CK1α Ymin” value was “D (D = >10- 25% remaining)” and the DC50 was less than 25 nM. Moreover, at GSPT1, the DC50 is no less than 25 nM and the “GSPT1 Ymin” value is given as “F (F = >75-100% remaining)”.

Take `C[C@@H]1CCCCN1c1nc(-c2ccc3c(c2)CN(C2CCC(=O)NC2=O)C3=O)nn1C` (stereo partly drawn) [Example 709, 3-(5-(1-methyl-5-((R)-2-methylpiperidin-1-yl)-1H-1,2,4-triazol-3-yl)-1-oxoisoindolin-2-yl)piperidine-2,6-dione]: on CK1α, the “CK1α Ymin” value is “D (D = >10- 25% remaining)” and the DC50 is less than 25 nM. In addition, on GSPT1, the DC50 was no less than 25 nM and the “GSPT1 Ymin” value is on record as “F (F = >75-100% remaining)”.

For the compound `Cn1cc(-c2ccc3c(c2)CN(C2CCC(=O)NC2=O)C3=O)nc1C12CC3CC(CC(C3)C1)C2` (stereo not shown) [Example 711, 3-[5-[2-(1-adamantyl)-1-methyl-imidazol-4-yl]-1-oxo-isoindolin-2-yl]piperidine-2,6-dione], on CK1α, the “CK1α Ymin” value is reported as “E (E = >25-75% remaining)” and the DC50 is less than 25 nM. Further, at GSPT1, the DC50 was no less than 25 nM and the “GSPT1 Ymin” value is given as “F (F = >75-100% remaining)”.

`Cc1nc(-c2ccc3c(c2)CN(C2CCC(=O)NC2=O)C3=O)nn1-c1ccccc1` (stereo not shown) [Example 712, 3-(5-(5-methyl-1-phenyl-1H-1,2,4-triazol-3-yl)-1-oxoisoindolin-2-yl) piperidine-2,6-dione]: on CK1α, the “CK1α Ymin” value was “D (D = >10- 25% remaining)” and the DC50 is less than 25 nM. Moreover, on GSPT1, the DC50 is less than 25 nM and the “GSPT1 Ymin” value was “F (F = >75-100% remaining)”.

Turning to `Cn1nc(-c2ccc3c(c2)CN(C2CCC(=O)NC2=O)C3=O)nc1N1CCCC1` (stereo not shown) [Example 713, 3-(5-(1-methyl-5-(pyrrolidin-1-yl)-1H-1,2,4-triazol-3-yl)-1-oxoisoindolin-2-yl)piperidine-2,6-dione], at CK1α, the “CK1α Ymin” value was “D (D = >10- 25% remaining)” and the DC50 is less than 25 nM. In addition, at GSPT1, the DC50 was less than 25 nM and the “GSPT1 Ymin” value is recorded as “F (F = >75-100% remaining)”.

Regarding `Cn1cc(-c2ccc3c(c2)CN(C2CCC(=O)NC2=O)C3=O)nc1C1(C)CCCCC1` (stereo not shown) [Example 714, 3-(5-(1-methyl-2-(1-methylcyclohexyl)-1H-imidazol-4-yl)-1-oxoisoindolin-2-yl)piperidine-2,6-dione], at CK1α, the “CK1α Ymin” value was “E (E = >25-75% remaining)” and the DC50 was less than 25 nM. Also, at GSPT1, the DC50 was less than 25 nM and the “GSPT1 Ymin” value was “F (F = >75-100% remaining)”.

With `Cn1cc(-c2ccc3c(c2)CN(C2CCC(=O)NC2=O)C3=O)nc1[C@H]1CC[C@H](C)CC1` (stereo partly shown) [Example 715, 3-(5-(1-Methyl-2-((1r,4r)-4-methylcyclohexyl)-1H-imidazol-4-yl)-1-oxoisoindolin-2-yl)piperidine-2,6-dione], on CK1α, the “CK1α Ymin” value is recorded as “D (D = >10- 25% remaining)” and the DC50 was less than 25 nM. For the same compound, at GSPT1, the DC50 is less than 25 nM and the “GSPT1 Ymin” value is “E (E = >25-75% remaining)”.

On to `Cn1cc(-c2ccc3c(c2)CN(C2CCC(=O)NC2=O)C3=O)nc1[C@H]1[C@@H]2COC[C@@H]21` (stereo partly drawn) [Example 716, 3-(5-(2-((1R,5S,6s)-3-oxabicyclo[3.1.0]hexan-6-yl)-1-methyl-1H-imidazol-4-yl)-1-oxoisoindolin-2-yl)piperidine-2,6-dione], for which, on CK1α, the “CK1α Ymin” value was “E (E = >25-75% remaining)” and the DC50 is less than 25 nM. Besides, on GSPT1, the DC50 was no less than 25 nM and the “GSPT1 Ymin” value is given as “F (F = >75-100% remaining)”.

The values above are taken from patent US20240158370A1, “CK1 alpha AND DUAL CK1 alpha / GSPT1 DEGRADING COMPOUNDS” (Innovo Therapeutics, Inc., priority 2022, published 2024).
